Assay: Intramolecular Cu-catalysed sydnonimine-alkyne click-and-release (forms 1,4-disubstituted pyrazole, releases CO2 and pyrenylmethyl urea/isocyanate): CuSO4 0.2 eq, bathophenanthroline disulfonate 0.4 eq, Na ascorbate 3 eq, triethanolamine 2 eq, 16 h; rGO filtration and aqueous work-up
Conditions: DMSO/H2O 1:1, 35.0 mM, 37.0 °C

CC(C)C[C@@H]1NC(=O)[C@@H]2CCCN2Cc2cnn(c2)-c2cccc(c2)C(=O)NCCNC(=O)CNC1=O gave a ring closure, isolated yield (from C#CCN1CCC[C@H]1C(=O)N[C@@H](CC(C)C)C(=O)NCC(=O)NCCNC(=O)c1cccc(-[n+]2cc([N-]C(=O)NCc3ccc4ccc5cccc6ccc3c4c56)on2)c1, 21-membered ring) of 79%.

Work on CC(C)C[C@@H]1NC(=O)c2cccc(c2)-n2cc(cn2)CNC(=O)[C@H](C)NC1=O [3-(sydnonimine-pyrene)benzoyl-Leu-Ala-NH-propargyl] yielded a ring closure, isolated yield (from C#CCNC(=O)[C@H](C)NC(=O)[C@H](CC(C)C)NC(=O)c1cccc(-[n+]2cc([N-]C(=O)NCc3ccc4ccc5cccc6ccc3c4c56)on2)c1, 15-membered ring) of 68%.

For CC(C)C[C@@H]1NC(=O)[C@H](Cc2ccccc2)NC(=O)c2cccc(c2)-n2cc(cn2)CNC1=O [3-(sydnonimine-pyrene)benzoyl-Phe-Leu-NH-propargyl], the ring closure, isolated yield (from C#CCNC(=O)[C@H](CC(C)C)NC(=O)[C@H](Cc1ccccc1)NC(=O)c1cccc(-[n+]2cc([N-]C(=O)NCc3ccc4ccc5cccc6ccc3c4c56)on2)c1, 15-membered ring) was 63%.

O=C1CNC(=O)[C@H](Cc2c[nH]c3ccccc23)NC(=O)c2cccc(c2)-n2cc(cn2)CN1 [3-(sydnonimine-pyrene)benzoyl-Trp-Gly-NH-propargyl] gave a ring closure, isolated yield (from C#CCNC(=O)CNC(=O)[C@H](Cc1c[nH]c2ccccc12)NC(=O)c1cccc(-[n+]2cc([N-]C(=O)NCc3ccc4ccc5cccc6ccc3c4c56)on2)c1, 15-membered ring) of 75%.

With C#CCNC(=O)CNC(=O)c1cccc(-[n+]2cc([N-]C(=O)NCc3ccc4ccc5cccc6ccc3c4c56)on2)c1 [S1 -> CyP1] the ring closure, isolated yield (the molecule shown is the open-chain precursor, 12-membered ring) was 0%.

In the case of O=C1CCCCNC(=O)c2cccc(c2)-n2cc(cn2)CN1 [S2 -> CyP2], the ring closure, isolated yield (from C#CCNC(=O)CCCCNC(=O)c1cccc(-[n+]2cc([N-]C(=O)NCc3ccc4ccc5cccc6ccc3c4c56)on2)c1, 15-membered ring) is reported as 75%.

O=C1CCCCCCCNC(=O)c2cccc(c2)-n2cc(cn2)CN1 [S3 -> CyP3] showed a ring closure, isolated yield (from C#CCNC(=O)CCCCCCCNC(=O)c1cccc(-[n+]2cc([N-]C(=O)NCc3ccc4ccc5cccc6ccc3c4c56)on2)c1, 18-membered ring) of 85%.

O=C1CCCCCCCCCCNC(=O)c2cccc(c2)-n2cc(cn2)CN1 [S4 -> CyP4] gave a ring closure, isolated yield (from C#CCNC(=O)CCCCCCCCCCNC(=O)c1cccc(-[n+]2cc([N-]C(=O)NCc3ccc4ccc5cccc6ccc3c4c56)on2)c1, 21-membered ring) of 65%.

Molecule O=C1CCCCCCCCCCNC(=O)c2cccc(c2)-n2cc(cn2)CNC(=O)CN1 [S5 -> CyP5] has a ring closure, isolated yield (from C#CCNC(=O)CNC(=O)CCCCCCCCCCNC(=O)c1cccc(-[n+]2cc([N-]C(=O)NCc3ccc4ccc5cccc6ccc3c4c56)on2)c1, 24-membered ring) of 68%.

Molecule O=C1CCCCCCCCCCNC(=O)c2cccc(c2)-n2cc(cn2)CNC(=O)CCCCN1 [S6 -> CyP6] has a ring closure, isolated yield (from C#CCNC(=O)CCCCNC(=O)CCCCCCCCCCNC(=O)c1cccc(-[n+]2cc([N-]C(=O)NCc3ccc4ccc5cccc6ccc3c4c56)on2)c1, 27-membered ring) of 78%.

O=C1NCCOCCOCCOCc2cnn(c2)-c2cccc1c2 [S7 -> CyP7 (50 C)] gave a ring closure, isolated yield (from C#CCOCCOCCOCCNC(=O)c1cccc(-[n+]2cc([N-]C(=O)NCc3ccc4ccc5cccc6ccc3c4c56)on2)c1, 18-membered ring) of 81%.

Molecule O=C1CCc2cnn(c2)-c2cccc(c2)C(=O)Nc2ccc(cc2)Oc2cccc(c2)Oc2ccc(cc2)N1 [S8 -> CyP8] has a ring closure, isolated yield (from C#CCCC(=O)Nc1ccc(Oc2cccc(Oc3ccc(NC(=O)c4cccc(-[n+]5cc([N-]C(=O)NCc6ccc7ccc8cccc9ccc6c7c89)on5)c4)cc3)c2)cc1, 25-membered ring) of 72%.

Molecule COC(=O)[C@@H]1CCCCNC(=O)c2cccc(c2)-n2cc(cn2)CCCC(=O)N1 [hex-5-ynoyl-Lys(Nε-3-(sydnonimine-pyrene)benzoyl)-OMe] has a ring closure, isolated yield (from C#CCCCC(=O)N[C@@H](CCCCNC(=O)c1cccc(-[n+]2cc([N-]C(=O)NCc3ccc4ccc5cccc6ccc3c4c56)on2)c1)C(=O)OC, 18-membered ring) of 76%.
